The values that follow come from ChEMBL document CHEMBL1201862, “PubChem BioAssay data set” (2004).

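Grown in 96-well plates, cells were treated for 48 hours with each compound at five concentrations. Insufficient inhibition: endpoint recorded as highest concentration tested. GI50: concentration for 50% inhibition of growth.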 The source made the active and inactive calls. Rule as the data show it: active = GI50 up to about 1.1 µM and inactive = higher.

Some test systems named below: HCT-15; SR; HL-60; PC-3; HOP-18; T47D; UO-31; SK-MEL-5; NCI/ADR-RES; SK-MEL-28; NCI-H460; NCI-H23; OVCAR-8; IGROV-1; K562; A498; HCC 2998; RPMI-8226; HOP-92; NCI-H522.
What all share (test): NCI anticancer screen, dose series, 48 h

On to `CN(Cc1cnc2nc(N)nc(N)c2n1)c1ccc(C(=O)NC(CCC(=O)O)C(=O)O)c2ccccc12` (stereo not drawn), for which the GI50 in the assay on HCT-15 is 0.00186 µM; in the assay on SR, 0.0025 µM (active); with HL-60 it was 0.000435 µM (active); in the assay on PC-3 it was 0.000479 µM (active); with HOP-18 it was > 100 µM (inactive); in the assay with T47D it was 0.204 µM (active). For the same compound, the GI50 was 0.00638 µM (active) in the assay with UO-31; 0.0107 µM (active) with SK-MEL-5; 0.00395 µM (active) in the assay with NCI/ADR-RES; 0.0805 µM (active) with SK-MEL-28; 0.0011 µM (active) in the assay on NCI-H460; 0.00773 µM (active) in the assay on NCI-H23. For the same compound, the GI50 in the assay on OVCAR-8 is 0.00378 µM (active); in the assay with IGROV-1, 0.0137 µM (active); with K562 it was 0.000301 µM (active); in the assay with A498, 0.0526 µM (active); in the assay with HCC 2998, 0.00145 µM (active); with RPMI-8226 it was 0.00764 µM (active).
Regarding `Cc1c2cc[n+](CCN3CCCCC3)cc2c(C)c2c1[nH]c1ccc(O)cc12`, the GI50 was 12.5 µM in the assay with HCT-15; 0.0723 µM (active) in the assay with SR; 1.69 µM (inactive) in the assay on HL-60; 5.11 µM (inactive) in the assay with HOP-92; 7.96 µM (inactive) in the assay on PC-3; 13.1 µM (inactive) in the assay with HOP-18. In addition, the GI50 was 2.82 µM (inactive) with T47D; 17.1 µM (inactive) in the assay with UO-31; 2.54 µM (inactive) with SK-MEL-5; 1.99 µM (inactive) in the assay with NCI-H522; 16.3 µM (inactive) in the assay with NCI/ADR-RES; 6.1 µM (inactive) with SK-MEL-28. Besides, the GI50 was 0.418 µM (active) with NCI-H460; 5.46 µM (inactive) in the assay with NCI-H23; 2.04 µM (inactive) in the assay on OVCAR-8; 2.89 µM (inactive) in the assay with IGROV-1; 2.69 µM (inactive) in the assay with K562; 10.6 µM (inactive) in the assay with A498. Further, the GI50 in the assay on HCC 2998 was 3.12 µM (inactive); with RPMI-8226, 2.48 µM (inactive).
